Laboratory results: patent US20250034216A1, “STEREOSELECTIVE COVALENT LIGANDS FOR ONCOGENIC AND IMMUNOLOGICAL PROTEINS” (The Scripps Research Institute, priority 2021, published 2025)

Tests used:
STRBP_C142 = molecular target: T1, STRBP_C142 (Homo sapiens, UniProt Q96SI9); assay: IA-DTB cysteine engagement; assay type: binding; conditions: 22Rv1 cells, 20 μM probe, 1 h, relative to DMSO
T1 construct: endogenous in cells; host or cells: 22Rv1
T1 sequence (Q96SI9 1-672): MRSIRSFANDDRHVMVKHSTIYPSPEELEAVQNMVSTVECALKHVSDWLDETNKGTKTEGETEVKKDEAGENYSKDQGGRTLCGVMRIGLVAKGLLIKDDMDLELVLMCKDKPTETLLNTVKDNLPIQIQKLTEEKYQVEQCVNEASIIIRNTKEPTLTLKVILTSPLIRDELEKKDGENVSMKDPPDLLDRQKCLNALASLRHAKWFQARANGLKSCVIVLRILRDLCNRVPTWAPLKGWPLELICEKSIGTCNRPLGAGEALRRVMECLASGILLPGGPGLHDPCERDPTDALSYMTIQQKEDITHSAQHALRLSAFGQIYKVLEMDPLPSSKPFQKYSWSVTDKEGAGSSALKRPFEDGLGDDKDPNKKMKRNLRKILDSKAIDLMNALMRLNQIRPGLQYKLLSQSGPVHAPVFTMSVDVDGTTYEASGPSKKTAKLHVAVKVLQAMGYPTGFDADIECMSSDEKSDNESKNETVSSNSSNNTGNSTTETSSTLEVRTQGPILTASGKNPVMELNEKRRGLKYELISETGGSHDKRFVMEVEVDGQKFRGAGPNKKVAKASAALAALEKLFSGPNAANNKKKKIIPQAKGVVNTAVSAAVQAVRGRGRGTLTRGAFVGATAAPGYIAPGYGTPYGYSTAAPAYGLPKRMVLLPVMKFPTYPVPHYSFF
In short: (§1)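 Probe-exposed cells were lysed, IA-DTB-labeled, trypsinized and streptavidin-enriched. Multiplexed TMT quantitation gave engagement ratios versus DMSO, with non-tryptic peptides excluded and intensities normalized to median summed signal.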

LMNA_C570 = molecular target: T2, LMNA_C570 (Homo sapiens, UniProt P02545); assay: IA-DTB cysteine engagement; assay type: binding; conditions: 22Rv1 cells, 20 μM probe, 1 h, relative to DMSO
T2 construct: endogenous in cells; host or cells: 22Rv1
T2 sequence (P02545 1-664): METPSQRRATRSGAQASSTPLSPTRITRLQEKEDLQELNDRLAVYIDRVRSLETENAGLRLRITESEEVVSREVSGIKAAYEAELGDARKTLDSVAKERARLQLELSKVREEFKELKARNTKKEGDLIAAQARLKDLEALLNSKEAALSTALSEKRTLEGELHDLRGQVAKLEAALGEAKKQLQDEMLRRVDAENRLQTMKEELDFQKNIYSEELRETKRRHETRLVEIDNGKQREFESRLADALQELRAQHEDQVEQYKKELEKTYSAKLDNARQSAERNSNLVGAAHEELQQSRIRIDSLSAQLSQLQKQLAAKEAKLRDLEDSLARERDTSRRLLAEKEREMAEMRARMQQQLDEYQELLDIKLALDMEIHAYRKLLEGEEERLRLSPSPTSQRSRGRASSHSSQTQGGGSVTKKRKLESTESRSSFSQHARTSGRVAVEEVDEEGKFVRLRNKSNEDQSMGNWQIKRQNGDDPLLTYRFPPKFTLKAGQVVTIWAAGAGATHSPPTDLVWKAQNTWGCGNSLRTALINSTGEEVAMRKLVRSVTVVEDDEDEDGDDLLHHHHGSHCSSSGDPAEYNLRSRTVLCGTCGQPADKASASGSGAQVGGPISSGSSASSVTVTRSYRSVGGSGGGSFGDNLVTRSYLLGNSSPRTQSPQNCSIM
In short: as §1

| SMILES | % engagement STRBP_C142 (STRBP_C142) [%] | % engagement LMNA_C570 (LMNA_C570) [%] |
| --- | --- | --- |
| C=CC(=O)N1C[C@H](c2ccc(Br)cc2)[C@@H]1C(=O)Nc1cccc2cccnc12 [MY-1B, (2R,3S)-1-acryloyl-3-(4-bromophenyl)-N-(quinolin-8-yl)azetidine-2-carboxamide] | 8.5 | 70.5 |
| C=CC(=O)N1C[C@H](c2ccc(Br)cc2)[C@H]1C(=O)Nc1cccc2cccnc12 [MY-3B, (2S,3S)-1-acryloyl-3-(4-bromophenyl)-N-(quinolin-8-yl)azetidine-2-carboxamide] | 7.75 | 70.5 |
| C=CC(=O)N1C[C@H](c2ccc(Br)cc2)[C@H]1C(=O)Nc1cccc2cccnc12 [MY-3A, (2S,3S)-1-acryloyl-3-(4-bromophenyl)-N-(quinolin-8-yl)azetidine-2-carboxamide] | 16.25 | 75.5 |
| C=CC(=O)N1C[C@@H](c2ccc(Br)cc2)[C@H]1C(=O)Nc1cccc2cccnc12 [MY-1A, (2S,3R)-1-acryloyl-3-(4-bromophenyl)-N-(quinolin-8-yl)azetidine-2-carboxamide] | 88.25 | 75 |
